{"source": "patent US9771316B2", "about": "“Phenoxyalkylamine compound” (OSAKA UNIVERSITY, priority 2013, dated 2017)", "key": {"human LAT-1 [1]": {"molecular_target": "T1, human LAT-1 (Homo sapiens (Human), UniProt Q01650)", "T1 sequence (Q01650 whole entry)": "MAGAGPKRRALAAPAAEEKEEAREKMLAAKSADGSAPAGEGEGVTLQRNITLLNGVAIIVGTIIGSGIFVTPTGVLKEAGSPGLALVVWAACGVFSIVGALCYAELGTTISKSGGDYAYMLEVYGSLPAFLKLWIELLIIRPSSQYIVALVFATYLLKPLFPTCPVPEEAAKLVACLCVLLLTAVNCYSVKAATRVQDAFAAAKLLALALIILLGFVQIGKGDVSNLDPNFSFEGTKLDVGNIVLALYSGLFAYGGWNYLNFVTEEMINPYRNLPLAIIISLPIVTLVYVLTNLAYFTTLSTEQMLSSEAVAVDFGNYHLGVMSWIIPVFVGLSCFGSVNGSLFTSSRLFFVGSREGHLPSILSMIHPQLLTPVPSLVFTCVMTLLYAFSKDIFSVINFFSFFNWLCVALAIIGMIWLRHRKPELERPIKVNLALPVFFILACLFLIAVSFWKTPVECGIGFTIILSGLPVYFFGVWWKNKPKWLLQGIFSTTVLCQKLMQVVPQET", "T1 sequence (P08195 102-630 partner)": "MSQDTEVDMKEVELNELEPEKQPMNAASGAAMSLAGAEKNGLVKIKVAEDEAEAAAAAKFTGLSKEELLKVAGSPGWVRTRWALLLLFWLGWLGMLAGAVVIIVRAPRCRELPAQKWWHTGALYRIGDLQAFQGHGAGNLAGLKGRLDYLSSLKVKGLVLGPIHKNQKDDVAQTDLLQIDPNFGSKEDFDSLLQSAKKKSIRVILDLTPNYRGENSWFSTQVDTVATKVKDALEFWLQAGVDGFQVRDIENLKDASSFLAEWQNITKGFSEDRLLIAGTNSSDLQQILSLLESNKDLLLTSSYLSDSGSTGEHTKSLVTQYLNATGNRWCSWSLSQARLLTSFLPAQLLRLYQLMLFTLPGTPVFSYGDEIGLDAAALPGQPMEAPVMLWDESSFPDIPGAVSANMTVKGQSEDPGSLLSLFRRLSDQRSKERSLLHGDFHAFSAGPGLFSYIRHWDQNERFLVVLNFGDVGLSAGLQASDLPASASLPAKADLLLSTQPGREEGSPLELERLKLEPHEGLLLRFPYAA", "test": "Inhibition of [14C]L-leucine uptake into human LAT-1 stably expressing HEK293 cell line (uptake buffer, 1 min)", "assay_type": "cell-based", "conditions": "HEK293 human LAT-1 stably expressing cells; Na+-free HBSS pH7.4; [14C]L-leucine or alanine 1 μM, uptake 1 min; read-out: LAT-1 inhibitory activity/IC50", "excerpt": "(§1) 1) LAT-1 Inhibitory Activity and LAT-2 Inhibitory Activity Inhibitory Effect on Uptake of Amino Acid into Human LAT-1 Stably Expressing Cell Line and LAT-2 Stably Expressing Cell Line\n(§2) Expression vector each expressing a gene was inserted using Lipofectamine 2000 (Invitrogen) to cultured cell line HEK293 cell derived from human fetus renal cell. The resistant strains were selected using G418, and among them, the strains showing human LAT-1- or LAT-2-specific uptake of amino acid were established as stably expressing cell lines, respectively.\n(§3) The above-mentioned stably expressing cells were plated on a 24-well collagen plate at 1.2×10^5 cells/well, and, after 48 hr, the cells were washed (×3) with uptake buffer ([…] Hank's balanced salt solution (HBSS) pH7.4) kept at 37° C. Each test compound (0.1, 1, 3, 10, 30, 100, 300 and 1000 μM) was added thereto, and the mixture was kept at 37° C. for 3 min. [^14C]L-leucine or alanine (1 μM) was added thereto, and [^14C]L-leucine or alanine (1 μM) was uptaken for 1 min. The mixture was washed with ice-cold uptake buffer (×3). Then, the cells were dissolved in 0.1M NaOH aqueous solution (500 μL), and the protein concentration was measured using the 20 μL of the solution. The uptaken radioactivity was measured using the remaining solution. The measured results were corrected with the protein concentration. The results were evaluated as inhibitory capacity 50%, i.e., IC50, which corresponds to the concentration inhibiting 50% of the cellular uptake of amino acid."}, "human LAT-2": {"molecular_target": "human LAT-2 (Homo sapiens (Human), UniProt Q9UHI5)", "sequence (Q9UHI5 whole entry)": "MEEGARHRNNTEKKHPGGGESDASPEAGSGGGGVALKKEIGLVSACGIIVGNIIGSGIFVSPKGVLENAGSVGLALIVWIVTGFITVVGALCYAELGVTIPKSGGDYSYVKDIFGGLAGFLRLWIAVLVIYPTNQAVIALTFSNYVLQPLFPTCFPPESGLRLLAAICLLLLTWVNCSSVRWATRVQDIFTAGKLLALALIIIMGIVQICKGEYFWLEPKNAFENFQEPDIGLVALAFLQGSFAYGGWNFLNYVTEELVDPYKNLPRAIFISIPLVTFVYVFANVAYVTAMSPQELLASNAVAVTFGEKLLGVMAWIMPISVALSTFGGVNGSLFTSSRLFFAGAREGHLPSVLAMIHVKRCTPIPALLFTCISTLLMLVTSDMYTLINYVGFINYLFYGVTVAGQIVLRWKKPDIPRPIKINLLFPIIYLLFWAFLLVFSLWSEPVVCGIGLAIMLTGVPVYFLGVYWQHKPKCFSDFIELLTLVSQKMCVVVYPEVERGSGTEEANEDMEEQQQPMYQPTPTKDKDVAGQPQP", "sequence (P08195 102-630 partner)": "as the sequence (P08195 102-630 partner) above", "test": "Inhibition of [14C] amino acid uptake into human LAT-2 stably expressing HEK293 cell line (uptake buffer, 1 min)", "assay_type": "cell-based", "conditions": "HEK293 human LAT-2 stably expressing cells; Na+-free HBSS pH7.4; [14C]L-leucine or alanine 1 μM, uptake 1 min; read-out: LAT-2 inhibitory activity/IC50", "excerpt": "as §1, §2, §3"}, "human LAT-1 [2]": {"molecular_target": "T1, human LAT-1", "test": "Inhibition of [14C]L-leucine uptake into human LAT-1 stably expressing cells in culture solution (MEM medium, 120 min)", "assay_type": "cell-based", "conditions": "MEM medium containing non-essential amino acid, [14C]L-leucine uptake 120 min, read-out: LAT-1 inhibitory activity/IC50", "experimental": "The above-mentioned human LAT-1 stably expressing cells were plated on a 24-well collagen plate at 1.2×10^5 cells/well, and, after 48 hr, the cells were washed (×3) with new culture solution (MEM medium (containing non-essential amino acid)) kept at 37° C. Each test compound (0.1, 1, 3, 10 and 30 μM) was added thereto, and the mixture was kept at 37° C. for 3 min. [^14C]L-leucine was added thereto, and [^14C]L-leucine was uptaken in the culture solution for 120 min. The mixture was washed (×3) with ice-cold buffer (Na^2+-free Hank's balanced salt solution (HBSS) pH7.4). Then, the cells were dissolved in 0.1M NaOH aqueous solution (500 μL), and the protein concentration was measured using the 20 μL of the solution. The uptaken radioactivity was measured using the remaining solution. The measured results were corrected with the protein concentration. The results were evaluated as inhibitory capacity 50%, i.e., IC50, which corresponds to the concentration inhibiting 50% of the cellular uptake of amino acid."}, "MIAPaCa-2 cells": {"tested_on": "MIAPaCa-2 cells", "test": "Growth inhibitory effect on human pancreatic cancer cell line MIAPaCa-2 (Trypan-Blue method)", "assay_type": "cell-based", "conditions": "MIA PaCa-2, 0.2% DMSO, counted every 24 hr for 5 days", "description": "2) Growth Inhibitory Effect on Human Pancreatic Cancer Cell Line MIAPaCa-2\nMIAPaCa-2 cells were plated on a 12-well plate at 2000 cells/well, and cultured for 48 hr without addition of test compound. 48 hr after the beginning of the culture, each test compound (0.03, 0.1, 0.3, 1, 3, 6, 10, 30, 100 μM) was added thereto in the presence of 0.2% DMSO. The cells were counted every 24 hr for 5 days, and the inhibitory effect on the MIAPaCa-2 cell growth was observed by Trypan-Blue method. The results were evaluated as inhibitory capacity 50%, i.e., IC50, which corresponds to the concentration inhibiting 50% of the cell growth inhibitory activity."}, "[3]": {"tested_on": "subcutaneous tumor derived from human pancreatic cancer cell line MIAPaCa-2", "test": "Enlargement inhibitory effect on subcutaneous tumor derived from MIAPaCa-2 in nude mice", "assay_type": "in vivo, nude mice (BALB/cAJc1-nu)", "conditions": "1 mg/kg orally once a day for 7 days; female nude mice; tumor volume after 15 to 21 days vs control group", "description": "Experimental Example 2 Biological Activity Evaluation Test Enlargement Inhibitory Effect on Subcutaneous Tumor Derived from Human Pancreatic Cancer Cell Line MIAPaCa-2 in Nude Mice\nTumor tissue (0.1 g) derived from MIAPaCa-2 cell was subcutaneously transplanted into female nude mice (6-week old, BALB/cAJc1-nu), which the tumor tissue was formed in different nude mice in advance. 5% MC suspension was prepared from saline and each test compound (1 mg/kg), and it was orally-administered once a day for 7 days from 2 days after transplant. The time-dependent change of the tumor volume was measured by measuring (major axis×minor axis×minor axis)/2 of the tumor volume (weight) according to the method in Sawa, Jun Wu, Takaaki Akaike, and Hiroshi Maeda (2000) Cancer research 60, 666-671.\nThe tumor volume after 15 to 21 days administration of compound administration group was compared with those of control group, and the tumor growth inhibitory ratio was calculated. The anti-tumor action was evaluated as tumor growth inhibitory ratio."}}, "note": "Structures can show the parent of a compound that is named as a salt.", "data": [{"smiles": "NCCCCC(Oc1ccc(OC(F)(F)F)c(F)c1)c1cccs1", "note": "(stereo not drawn) [Example 53]", "values": [{"measurement": "IC50", "setting": "human LAT-1 [1]", "value": 146, "unit": "µM"}, {"measurement": "IC50", "setting": "human LAT-2", "value": 258, "unit": "µM"}]}, {"smiles": "NCCCC[C@@H](Oc1ccc(OC(F)(F)F)cc1)c1ccccc1.O=C(O)/C=C/C(=O)O", "note": "[Example 70, (R)-5-phenyl-5-[4-(trifluoromethoxy)phenoxy]pentan-1-amine fumarate]", "values": [{"measurement": "IC50", "setting": "human LAT-1 [1]", "value": 36.6, "unit": "µM"}, {"measurement": "IC50", "setting": "human LAT-2", "value": 131, "unit": "µM"}, {"measurement": "IC50", "setting": "human LAT-1 [2]", "value": 10.4, "unit": "µM"}, {"measurement": "IC50", "setting": "MIAPaCa-2 cells", "value": 0.11, "unit": "µM"}, {"measurement": "tumor growth inhibitory ratio", "setting": "[3]", "value": 90.2, "unit": "%"}]}, {"smiles": "NCCCCC(Oc1ccc(C(F)(F)F)c(F)c1)c1ccccc1", "note": "(stereo not drawn) [Example 29]", "values": [{"measurement": "IC50", "setting": "human LAT-1 [1]", "value": 76, "unit": "µM"}, {"measurement": "IC50", "setting": "human LAT-2", "value": 218, "unit": "µM"}]}, {"smiles": "CCC(C)c1ccc(OC(CCCCN)c2cccs2)cc1", "note": "(stereo not drawn) [Example 51]", "values": [{"measurement": "IC50", "setting": "human LAT-1 [1]", "value": 261, "unit": "µM"}, {"measurement": "IC50", "setting": "human LAT-2", "value": 261, "unit": "µM"}]}, {"smiles": "NCCCCC(Oc1ccc(C(F)(F)F)cc1)c1cccs1", "note": "(stereo not drawn) [Example 48, 5-(thiophen-2-yl)-5-[4-(trifluoromethyl)phenoxy]pentan-1-amine]", "values": [{"measurement": "IC50", "setting": "human LAT-1 [1]", "value": 56.6, "unit": "µM"}, {"measurement": "IC50", "setting": "human LAT-2", "value": 357, "unit": "µM"}]}, {"smiles": "NCCCCC(Oc1ccc(C(F)(F)F)cc1)c1ccccc1.O=C(O)/C=C/C(=O)O", "note": "(stereo not drawn) [Example 2, 5-phenyl-5-[4-(trifluoromethyl)phenoxy]pentan-1-amine fumarate]", "values": [{"measurement": "tumor growth inhibitory ratio", "setting": "[3]", "value": 80.5, "unit": "%"}]}, {"smiles": "NCCCCC(Oc1ccc(C(F)(F)F)c(F)c1)c1cccs1", "note": "(stereo not drawn) [Example 54]", "values": [{"measurement": "IC50", "setting": "human LAT-1 [1]", "value": 177, "unit": "µM"}, {"measurement": "IC50", "setting": "human LAT-2", "value": 300, "unit": "µM"}]}, {"smiles": "NCCCC[C@H](Oc1ccc(C(F)(F)F)c(F)c1)c1ccccc1.O=C(O)/C=C/C(=O)O", "note": "[Example 69, (S)-5-[3-fluoro-4-(trifluoromethyl)phenoxy]-5-phenylpentan-1-amine fumarate]", "values": [{"measurement": "IC50", "setting": "human LAT-1 [1]", "value": 69, "unit": "µM"}, {"measurement": "IC50", "setting": "human LAT-2", "value": 53, "unit": "µM"}, {"measurement": "IC50", "setting": "MIAPaCa-2 cells", "value": 0.83, "unit": "µM"}, {"measurement": "tumor growth inhibitory ratio", "setting": "[3]", "value": 85.5, "unit": "%"}]}, {"smiles": "NCCCCC(Oc1ccc(C(F)(F)F)cc1)c1cccc(F)c1", "note": "(stereo not drawn) [Example 12]", "values": [{"measurement": "IC50", "setting": "human LAT-1 [1]", "value": 63, "unit": "µM"}, {"measurement": "IC50", "setting": "human LAT-2", "value": 100, "unit": "µM"}]}, {"smiles": "NCCCCC(Oc1ccc(OC(F)(F)F)cc1)c1cccs1", "note": "(stereo not drawn) [Example 50]", "values": [{"measurement": "IC50", "setting": "human LAT-1 [1]", "value": 123, "unit": "µM"}, {"measurement": "IC50", "setting": "human LAT-2", "value": 313, "unit": "µM"}]}, {"smiles": "NCCCCC(Oc1ccc(C(F)(F)F)c(F)c1)c1ccccc1.O=C(O)/C=C/C(=O)O", "note": "(stereo not drawn) [Example 72]", "values": [{"measurement": "tumor growth inhibitory ratio", "setting": "[3]", "value": 84.4, "unit": "%"}]}, {"smiles": "NCCCCC(Oc1ccc(OC(F)(F)F)cc1)c1ccccc1.O=C(O)/C=C/C(=O)O", "note": "(stereo not drawn) [Example 73]", "values": [{"measurement": "tumor growth inhibitory ratio", "setting": "[3]", "value": 83.6, "unit": "%"}]}, {"smiles": "NCCCC[C@@H](Oc1ccc(C(F)(F)F)cc1)c1ccccc1", "note": "[Example 66, (R)-5-phenyl-5-[4-(trifluoromethyl)phenoxy]pentan-1-amine fumarate]", "values": [{"measurement": "IC50", "setting": "human LAT-1 [1]", "value": 62.8, "unit": "µM"}, {"measurement": "IC50", "setting": "human LAT-2", "value": 194, "unit": "µM"}, {"measurement": "IC50", "setting": "MIAPaCa-2 cells", "value": 0.17, "unit": "µM"}]}, {"smiles": "NCCCCC(Oc1ccc(C(F)(F)F)cc1)c1ccccc1", "note": "(stereo not drawn) [Example 1, 5-phenyl-5-[4-(trifluoromethyl)phenoxy]pentan-1-amine]", "values": [{"measurement": "IC50", "setting": "human LAT-1 [1]", "value": 57.5, "unit": "µM"}, {"measurement": "IC50", "setting": "human LAT-2", "value": 146, "unit": "µM"}]}, {"smiles": "NCCCC[C@@H](Oc1ccc(C(F)(F)F)c(F)c1)c1ccccc1.O=C(O)/C=C/C(=O)O", "note": "[Example 68, (R)-5-[3-fluoro-4-(trifluoromethyl)phenoxy]-5-phenylpentan-1-amine fumarate]", "values": [{"measurement": "IC50", "setting": "human LAT-1 [1]", "value": 36.4, "unit": "µM"}, {"measurement": "IC50", "setting": "human LAT-2", "value": 156, "unit": "µM"}, {"measurement": "IC50", "setting": "MIAPaCa-2 cells", "value": 0.43, "unit": "µM"}, {"measurement": "tumor growth inhibitory ratio", "setting": "[3]", "value": 84.4, "unit": "%"}]}, {"smiles": "NCCCCC(Oc1ccc(OC(F)(F)F)cc1)c1ccccc1", "note": "(stereo not drawn) [Example 44]", "values": [{"measurement": "IC50", "setting": "human LAT-1 [1]", "value": 39.4, "unit": "µM"}, {"measurement": "IC50", "setting": "human LAT-2", "value": 169, "unit": "µM"}]}, {"smiles": "NCCCC[C@H](Oc1ccc(OC(F)(F)F)cc1)c1ccccc1.O=C(O)/C=C/C(=O)O", "note": "[Example 71, (S)-5-phenyl-5-[4-(trifluoromethoxy)phenoxy]pentan-1-amine fumarate]", "values": [{"measurement": "IC50", "setting": "human LAT-1 [1]", "value": 244, "unit": "µM"}, {"measurement": "IC50", "setting": "human LAT-2", "value": 131, "unit": "µM"}, {"measurement": "IC50", "setting": "MIAPaCa-2 cells", "value": 3.36, "unit": "µM"}, {"measurement": "tumor growth inhibitory ratio", "setting": "[3]", "value": 85.9, "unit": "%"}]}, {"smiles": "NCCCC[C@H](Oc1ccc(C(F)(F)F)cc1)c1ccccc1", "note": "[Example 67, (S)-5-phenyl-5-[4-(trifluoromethyl)phenoxy]pentan-1-amine fumarate]", "values": [{"measurement": "IC50", "setting": "human LAT-1 [1]", "value": 96.2, "unit": "µM"}, {"measurement": "IC50", "setting": "human LAT-2", "value": 207, "unit": "µM"}, {"measurement": "IC50", "setting": "MIAPaCa-2 cells", "value": 4.16, "unit": "µM"}]}, {"smiles": "NCCCCCC(Oc1ccc(C(F)(F)F)cc1)c1ccccc1", "note": "(stereo not drawn) [Example 6, 6-phenyl-6-[4-(trifluoromethyl)phenoxy]hexan-1-amine]", "values": [{"measurement": "IC50", "setting": "human LAT-1 [1]", "value": 89.1, "unit": "µM"}, {"measurement": "IC50", "setting": "human LAT-2", "value": 128, "unit": "µM"}]}, {"smiles": "CCC(C)c1ccc(OC(CCCCN)c2ccccc2)cc1", "note": "(stereo not drawn) [Example 26]", "values": [{"measurement": "IC50", "setting": "human LAT-1 [1]", "value": 57, "unit": "µM"}, {"measurement": "IC50", "setting": "human LAT-2", "value": 253, "unit": "µM"}]}]}
